Assay results: US20170239334A1, “ANTI-DIARRHEA FORMULATION WHICH AVOIDS ANTIMICROBIAL RESISTANCE” (Anatara Lifesciences Limited, priority 2014, published 2017)

Experiment: Trial 2 (France): blinded randomised field trial in weaned piglets, weight gain, feed intake and feed conversion ratio versus in-feed colistin
Type: in vivo
Method: Aim: The objective of this study was to compare the feed conversion ratios of piglets administered a single dose of my formulation with in feed colistin, an antibiotic.
Study Outline: This study was a blinded, controlled, randomised field trial comparing three parallel groups of piglets, (n=89 per group): 1. Colistin; 2. My formulation; and 3. No treatment. In this study, whole litters are randomised to receive different treatments, so litters are treated on a whole litter basis.
Weaning on this farm occurs in 2 stages. In stage 1, piglets are weaned by removing the sow (at day-5). Then on day 0, piglets are moved to their weaning pen.
At day-5, Group 1 piglets were administered colistin (9 kg antibiotic premix per Ton of feed) in pre-starter feed for 14 days (day-5 to day 9). The other two groups were administered pre-starter feed alone. On day 0 (5 days post weaning), when piglets are moved to their weaner pens, Group 2 piglets received a single dose of my formulation. Group 3 piglets were untreated.
Analysis: As Per Study 1.

[1] = pre-starter phase (d-5 to d9), 6 pens

colistin
Average Daily Weight gain (Post weaning): 377 ± 82 g
Average Daily Weight gain (Post weaning and fattening (overall)): 664 ± 67 g
Average Daily Weight gain (Pre-starter (d -5 to d 9)): 167 ± 67 g
Average Daily Weight gain (Starter): 505 ± 110 g
Feed Conversion Ratio, Arithmetic Mean [1]: 2.71
Feed Conversion Ratio, Median [1]: 2.59
Feed Conversion Ratio, Min-Max [1]: 1.75-3.42
Feed intake, Arithmetic Mean [1]: 417 g
Feed intake, Min-Max [1]: 358 to 479 g
